In brackets after ≈: the same amount, converted by molar mass. Where a SMILES comes first, the peptide text is derived from it.

The values below come from the OPERA property sets (Mansouri et al. 2018).

Settings in one data set: not given
Take `COc1nc(C)nc(NC(=O)NS(=O)(=O)c2ccccc2Cl)n1`: the logP – broadly, the decadic logarithm of the partition coefficient of the neutral form, usually between octanol and water – came to 2. Same read-out and setting: the figure for `O=c1[nH]c(=O)c2[nH]c(=O)[nH]c2[nH]1` is -2.17. Consider `N#CCCl`, for which the solubility – broadly, the concentration that dissolves in the medium under given conditions – stood at 1320 mM (≈ 100 mg/mL). For the molecule `Cc1ccc2c(ccc3ccccc32)c1`, the log partition coefficient (logP) came out at 4.86. Same read-out and setting: to `CCn1cc(C(=O)O)c(=O)c2cc(F)c(N3CCNCC3)c(F)c21` belongs -0.57; to `ClC1(Cl)CC1(c1ccccc1)c1ccccc1`, 4.88; to `COC(=O)C(c1ccccc1)C(C)C` (stereo not given), 3.33. The same measure, in the same setting: the figure for `N[C@@H](CSSC[C@H](N)C(=O)O)C(=O)O` is -5.08; for `CNS(=O)(=O)c1ccc(Cl)cc1` it is 1.92; for `C=CC(=O)NCCCN1CCSCC1` it is 0.54.

`COCCCNc1nc(NCCCOC)nc(SC)n1` came in with a solubility of 0.332 mM (≈ 0.1 mg/mL).

`Cc1sc(C(=O)Nc2nnn[nH]2)c(OC(C)C)c1Br` showed a logP of 1.72. Same read-out and setting: to `Nc1nc(=O)n([C@H]2CC[C@@H](CO)O2)cc1F` belongs -1.09; to `NCCc1nc(-c2ccccc2)cs1`, 2.22; to `CC(=O)OCn1cc2c(=O)n(COC(C)=O)cnc2n1`, -0.2. On the same count and under the same terms, the figure for `CCC(=O)OCN1C(=O)NC(c2ccccc2)(c2ccccc2)C1=O` is 2.8; for `CNS(=O)(=O)c1ccc(C)cc1` it is 1.28; for `CCCCCCC(C)=O` it is 2.37.

Regarding `CC(C)(C)C1CCC(O)CC1` (stereo not given), the logP is 3.23. Molecule `CC(C)NCc1ccccc1` displayed a logP of 1.83.

For `CC(C)COCCO`, the logP turned out to be 0.75.

As to `CCn1cc(C(=O)NC(C(=O)OC)C(C)C)c(=O)c2ccc(C)nc21` (stereo not given), the logP was determined as 3.61. Same read-out and setting: the figure for `N=C(N)NN=Cc1ccc(Cl)cc1` is 0.96.

The molecule `Cc1ccc(S(=O)(=O)NC(CCC(=O)NC2CCCCC2)C(=O)O)cc1` (stereo not given) displayed a log partition coefficient (logP) of 0.1. Still for that read-out and setting: to `CCCCCCN1CCCC1=O` belongs 2.6; to `C=C(C)C1CC=C(C)CC1` (stereo not given), 4.57; to `N=c1cc2n(-c3ccc(Cl)cc3)c3ccccc3nc-2cc1Nc1ccc(Cl)cc1`, 6.47. On the same count and under the same terms, the figure for `CC(C)(C)OCCO` is 0.39; for `CCN(CC)P(=O)(N(CC)CC)N(CC)CC` it is 2.53; for `CCC(CO)(CO)CO` it is -1.48.

`COCC(C)OC(C)=O` (stereo not given): the logP amounted to 0.56. Still for that read-out and setting: to `NS(=O)(=O)c1nn2c(=Nc3cccc(F)c3)snc2s1` belongs 3.06.

Turning to `Cc1ccc(S(=O)(=O)O)cc1`, the solubility is 3600 mM (≈ 620 mg/mL). Take `N#Cc1cc(-c2ccncc2)cnc1NCCO`: the logP was determined as 1.17. Still for that read-out and setting: to `CCNc1nc(NC(C)C)nc(OC)n1` belongs 2.69. Same read-out and setting: the figure for `CCCC(CCC)=NNC(=N)N` is 1.73; for `N#CC(C#N)=Cc1ccc(Cl)o1` it is 2.17. On the same count and under the same terms, the figure for `COc1ccc(C=O)cc1OC` is 1.22; for `O=C(OC1C2C=CC1C=C2)c1ccccc1` (stereo not given) it is 3.03. For the molecule `c1ccc2[nH]c(-c3cscn3)nc2c1`, the logP was 2.47. Still for that read-out and setting: the figure for `NS(=O)(=O)c1nc2ccc(OCCO)cc2s1` is 0.59; for `O=C(O)c1ccc(-c2ccccc2)cc1` it is 3.75; for `OC(CN1C2CCCCC21)Cn1ccnc1` (stereo not given) it is 1.07. The same measure, in the same setting: the figure for `CCON=C(CC)C1=C(O)CC(c2c(C)cc(C)cc2C)CC1=O` (stereo not given) is 4.46. On the same count and under the same terms, to `CCCCc1oc(C)cc(=O)c1O` belongs 1.92. Regarding `Cc1cccc(Nc2ccccc2C(=O)O)c1`, the logP worked out at 4.88. Same read-out and setting: the figure for `CC(C)COC(=O)n1c(-c2cscn2)nc2ccccc21` is 3.46; for `O=C1c2ccccc2C(=O)C1C(=O)C(c1ccccc1)c1ccccc1` it is 4.27.

`COC(=O)C1=C(C)NC(C)=C(C(=O)O[C@@H]2CCCN(Cc3ccccc3)C2)[C@@H]1c1cccc([N+](=O)[O-])c1`: the logP was 4.61.

Molecule `O=[N+]([O-])c1c2ccccc2cc2ccccc12` returned a logP of 4.78.

Molecule `CC[C@H](C)C(=O)O[C@H]1C[C@H](O)C=C2C=C[C@H](C)[C@H](CC[C@@H](O)C[C@@H](O)CC(=O)[O-])[C@H]21.[Na+]` yielded a logP of -0.23. `Clc1cc2c(Cl)c(Cl)c(Cl)c(Cl)c2cc1Cl` yielded a logP of 7.7. Still for that read-out and setting: the figure for `O=C(O)c1c(C(=O)O)c(C(=O)O)c(C(=O)O)c(C(=O)O)c1C(=O)O` is 1.5. On the same count and under the same terms, the figure for `OC(CN1C2CCCC21)Cn1ccnc1` (stereo not given) is 0.37; for `CCCCCCC` it is 4.66. On the same count and under the same terms, the figure for `Cc1cc(Cc2c(Cl)cccc2Cl)c(Cl)cc1Cl` is 6.73; for `Cc1cc(C)c(NC(=O)CN(CC(=O)O)CC(=O)O)c(C)c1Br` it is 0.11. Consider `CC1COCc2cc3c(cc21)C(C)(C)C(C)C3(C)C` (stereo not given), for which the logP was 5.9. Still for that read-out and setting: the figure for `CC(O)C#N` (stereo not given) is -0.94; for `CC(=O)N[C@@H](C)C(=O)N[C@H](C(N)=O)C(C)C` (Ac-Ala-Val-NH2) it is -1.13. Still for that read-out and setting: to `CCCN(CCC)C1COc2c(O)cccc2C1` (stereo not given) belongs 3.3; to `CCCCCCCCCCCC`, 6.1.

Turning to `CCCCc1c(C)nc(NCC)nc1O`, the logP stood at 2.22. Molecule `NS(=O)(=O)c1cc2cc(CNCCF)sc2o1` yielded a logP of 0.34. Same read-out and setting: to `Nc1nc2c(ncn2COCCO)c(=O)[nH]1` belongs -1.56; to `CCCCNC(=O)CCC(NS(=O)(=O)c1ccc(C)cc1)C(=O)O` (stereo not given), 0; to `CC(=O)c1ccc(NCc2cnc3nc(N)nc(N)c3c2C)cc1`, 1.45. In turn, `Clc1c(Cl)c(Cl)c2c(Cl)c(Cl)c(Cl)c(Cl)c2c1Cl` had a logP of 8.5 and a solubility of 1.98e-07 mM (≈ 8e-08 mg/mL). `COc1ccc([N+](=O)[O-])cc1NC(C)=O`: the logP was 1.6. On the same count and under the same terms, to `Cc1ccc(C)c(C)n1` belongs 2.05. The same measure, in the same setting: to `CCCCc1ccc(NC(=O)CN(CC(=O)O)CC(=O)O)cc1Br` belongs 0.1. On the same count and under the same terms, the figure for `Cc1ccc(S(=O)(=O)CC(=O)c2ccccc2)cc1` is 2.45; for `Brc1cc(Br)c(Br)c(-c2c(Br)c(Br)cc(Br)c2Br)c1Br` it is 5.5; for `N#Cc1cc(-c2ccncc2)cnc1NCCCO` it is 1.42. Molecule `CCCC[N+](C)(CCCC)CCCC.[I-]` gave a logP of 0.26.

Regarding `OCc1ccccc1Cl`, the logP was determined as 1.77.

Molecule `C=CCNc1ncc(-c2ccncc2)cc1C#N` yielded a logP of 2.07. On the same count and under the same terms, the figure for `NC(=S)NN=Cc1ccc([N+](=O)[O-])o1` is 1.64; for `NS(=O)(=O)c1nn2c(=Nc3ccc(O)cc3)snc2s1` it is 1.89.

The data set is the same for the next values; noted with them: 20 °C.
The molecule `CC(C)(C)C1CCC(O)CC1` (stereo not given) returned a solubility of 0.64 mM (≈ 0.1 mg/mL). The molecule `C=Cc1ccccn1` gave a solubility of 262 mM (≈ 27.5 mg/mL).

On to `CCNc1nc(NC(C)C)nc(OC)n1`, for which the solubility was 8.52 mM (≈ 1.8 mg/mL). Still for that read-out and setting: the figure for `CC1CCC(O)CC1` (stereo not given) is 131 mM (≈ 15 mg/mL).

The data set is the same for the next values; noted with them: 23 °C.
Take `CCC(C#N)CC#N` (stereo not given): the solubility was 203 mM (≈ 22 mg/mL).

The data set is the same for the next values; noted with them: 23.0 °C.
Molecule `C=C(F)F` displayed a log10 OH rate constant (cm³/molecule/s) of -11.7. `C=C1CCC=C(C)CC[C@@H]2[C@@H]1CC2(C)C` came in with a log10 OH rate constant (cm³/molecule/s) of -9.7.

The same data set, now with this note: 24 °C.
Regarding `CCCCN(CCCC)N=O`, the solubility was found to be 8.03 mM (≈ 1.27 mg/mL).

Still in this data set, the particulars now being: 24.0 °C.
`C[Si]1(C)O[Si](C)(C)O[Si](C)(C)O1` returned a log10 OH rate constant (cm³/molecule/s) of -12.3.

`Clc1cc(Cl)cc(-c2ccccc2)c1` displayed a log10 OH rate constant (cm³/molecule/s) of -11.4.

Still in this data set, the particulars now being: 25 °C.
For `Cc1ccc2c(ccc3ccccc32)c1`, the solubility was determined as 0.00146 mM (≈ 0.00028 mg/mL). Same read-out and setting: the figure for `Oc1ccc(N=Nc2ccc(N=Nc3ccccc3)c3ccccc23)cc1` is 0.000979 mM (≈ 0.000345 mg/mL); for `O=c1n(Cl)c(=O)n(Cl)c(=O)n1Cl` it is 51.6 mM (≈ 12 mg/mL); for `CCOC(=O)[C@H](CCc1ccccc1)N[C@@H](C)C(=O)N1CCC[C@H]1C(=O)O` it is 43.6 mM (≈ 16.4 mg/mL). The same measure, in the same setting: the figure for `C=C(C)C1CC=C(C)CC1` (stereo not given) is 0.0777 mM (≈ 0.0106 mg/mL).

The molecule `O=[N+]([O-])c1ccc2ccccc2c1` returned a solubility of 0.0534 mM (≈ 0.00924 mg/mL).

`COCC(C)OC(C)=O` (stereo not given) displayed a solubility of 1500 mM (≈ 198 mg/mL).

Turning to `Nc1ccc2cc3ccccc3cc2c1`, the solubility came out at 0.00673 mM (≈ 0.0013 mg/mL). Same read-out and setting: the figure for `OCC#CCO` is 4340 mM (≈ 374 mg/mL). Same read-out and setting: the figure for `CCCCCCCCCCCCCCC` is 3.58e-07 mM (≈ 7.6e-08 mg/mL); for `Nc1ccn([C@H]2CC[C@@H](CO)O2)c(=O)n1` it is 362 mM (≈ 76.4 mg/mL); for `O=[N+]([O-])c1c2ccccc2cc2ccccc12` it is 0.000511 mM (≈ 0.000114 mg/mL).

As for `C#CCBr`, the solubility is 125 mM (≈ 14.9 mg/mL). Same read-out and setting: to `CCCCC(=O)O[C@]1(C(=O)CO)[C@@H](C)C[C@H]2[C@@H]3CCC4=CC(=O)C=C[C@]4(C)[C@@]3(F)[C@@H](O)C[C@@]21C` belongs 0.0195 mM (≈ 0.00929 mg/mL); to `CC1COCc2cc3c(cc21)C(C)(C)C(C)C3(C)C` (stereo not given), 0.00677 mM (≈ 0.00175 mg/mL); to `CC(=O)C=CC1=C(C)CCCC1(C)C`, 0.879 mM (≈ 0.169 mg/mL).

`Clc1cc2c(oc3c(Cl)c(Cl)c(Cl)c(Cl)c32)c(Cl)c1Cl`: the solubility was found to be 3.3e-09 mM (≈ 1.35e-09 mg/mL). Molecule `CC(C)C(O)C(C)(C)CO` (stereo not given) displayed a solubility of 130 mM (≈ 19 mg/mL). Still for that read-out and setting: to `CC1(C)C2CC3OC3(C)C1C2` (stereo not given) belongs 2.55 mM (≈ 0.388 mg/mL); to `CCCCCCCCOP(=O)(Oc1ccccc1)Oc1ccccc1`, 0.000386 mM (≈ 0.00014 mg/mL). On the same count and under the same terms, to `Oc1ccccc1Cl` belongs 87.9 mM (≈ 11.3 mg/mL). Same read-out and setting: to `Cc1ncc(CO)c(CN)c1O` belongs 2970 mM (≈ 500 mg/mL); to `CC(C)NC(C)C`, 1090 mM (≈ 110 mg/mL).

Still in this data set, the particulars now being: 25.0 °C.
`Oc1ccc2ccccc2c1` registered a log10 OH rate constant (cm³/molecule/s) of -9.77. Molecule `Oc1cccc2ccccc12` had a log10 OH rate constant (cm³/molecule/s) of -9.26. On the same count and under the same terms, to `OCC(F)(F)C(F)(F)C(F)(F)F` belongs -13; to `C=Cc1ccccn1`, -10.2. Still for that read-out and setting: the figure for `O=CC(F)(F)F` is -12.2; for `CCNc1nc(Cl)nc(NCC)n1` it is -11. Same read-out and setting: to `COC(F)(F)C(F)F` belongs -12.7; to `CCNC(=O)OCC`, -10.8.

Regarding `CCCCCl`, the log10 OH rate constant (cm³/molecule/s) was -11.8. The same measure, in the same setting: the figure for `CC(C)Cl` is -12. Same read-out and setting: the figure for `FC1(F)OC(F)(F)C1(F)F` is less than -15.7; for `C=CCOC(F)(F)C(F)F` it is -10.7; for `COC(F)(C(F)(F)F)C(F)(F)F` it is -13.8. The molecule `CC(=O)O[C@@H]1CC2CCC1(C)C2(C)C` (stereo not given in full) gave a log10 OH rate constant (cm³/molecule/s) of -10.9. The molecule `Clc1c(Cl)c(Cl)c2c(c1Cl)Oc1ccccc1O2` had a log10 OH rate constant (cm³/molecule/s) of -12.1.

For `FC(Br)C(F)(F)F` (stereo not given), the log10 OH rate constant (cm³/molecule/s) was -13.8.

For `COC(F)(F)C(F)(F)C(F)(F)F`, the log10 OH rate constant (cm³/molecule/s) was -13.9.
